One block for each molecule: values may come before it. Activity calls are given as the source filed them.
Tests used:
[1] = target: T1, Corticotropin-releasing factor receptor 2/Corticotropin-releasing factor-binding protein (Homo sapiens, UniProt P24387+Q13324); test: activators of CRF receptor 2 with binding protein – uHTS hits, confirmation (AID 602473); format: functional; conditions: read-out: EC50_Mean
T1 sequence (Q13324 whole entry): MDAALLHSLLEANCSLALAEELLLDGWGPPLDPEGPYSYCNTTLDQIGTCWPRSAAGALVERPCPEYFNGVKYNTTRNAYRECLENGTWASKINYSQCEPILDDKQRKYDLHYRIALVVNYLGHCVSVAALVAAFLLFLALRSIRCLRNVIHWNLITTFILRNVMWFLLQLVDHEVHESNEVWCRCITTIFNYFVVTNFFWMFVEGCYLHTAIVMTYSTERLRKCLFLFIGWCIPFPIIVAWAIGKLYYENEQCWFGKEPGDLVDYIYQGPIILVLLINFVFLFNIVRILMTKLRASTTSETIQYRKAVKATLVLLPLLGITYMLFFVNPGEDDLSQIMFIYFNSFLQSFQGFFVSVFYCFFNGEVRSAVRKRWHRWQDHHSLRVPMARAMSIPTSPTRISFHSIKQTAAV
T1 sequence (P24387 whole entry): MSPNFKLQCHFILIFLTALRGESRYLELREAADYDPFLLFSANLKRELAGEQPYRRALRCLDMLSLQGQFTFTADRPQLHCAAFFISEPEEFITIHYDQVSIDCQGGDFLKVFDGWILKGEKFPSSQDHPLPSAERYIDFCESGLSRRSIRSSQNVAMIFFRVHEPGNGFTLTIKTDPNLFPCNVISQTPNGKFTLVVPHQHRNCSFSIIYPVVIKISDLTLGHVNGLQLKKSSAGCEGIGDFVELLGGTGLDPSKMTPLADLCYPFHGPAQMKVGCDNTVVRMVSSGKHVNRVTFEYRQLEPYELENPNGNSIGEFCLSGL

[2] = target: T1, Corticotropin-releasing factor receptor 2/Corticotropin-releasing factor-binding protein; test: Dose Response confirmation of uHTS hits for small molecule antagonists of the CRF-binding protein and CRF-R2 receptor complex.; format: functional; conditions: read-out: IC50_Mean
[3] = viability loss in Vero cells – cytotoxicity control for Vif-APOBEC3G degradation inhibitor project, dose response (AID 1117358); format: functional; conditions: Vero
[4] = target: Muscarinic acetylcholine receptor M1 (Rattus norvegicus, UniProt P08482); test: concentration-dependent potentiation of ACh at M1 – cell-based, calcium mobilization, CHO-K1, ACh EC20, dose response (AID 2425); format: functional
Muscarinic acetylcholine receptor M1, sequence (P08482 whole entry): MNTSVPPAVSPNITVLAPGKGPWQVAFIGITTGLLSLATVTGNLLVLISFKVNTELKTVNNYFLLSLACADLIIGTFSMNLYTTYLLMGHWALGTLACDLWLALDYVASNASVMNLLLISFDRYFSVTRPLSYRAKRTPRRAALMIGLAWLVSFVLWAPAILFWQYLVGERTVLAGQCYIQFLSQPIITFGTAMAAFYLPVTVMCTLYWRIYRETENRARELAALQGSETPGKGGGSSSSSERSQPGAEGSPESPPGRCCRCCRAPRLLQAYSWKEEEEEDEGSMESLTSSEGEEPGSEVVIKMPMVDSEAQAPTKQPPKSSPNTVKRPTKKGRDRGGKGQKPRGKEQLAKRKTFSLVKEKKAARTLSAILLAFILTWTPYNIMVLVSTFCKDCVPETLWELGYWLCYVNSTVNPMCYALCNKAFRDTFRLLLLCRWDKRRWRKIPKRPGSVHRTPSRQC

[5] = target: Ephrin type-A receptor 4 (Mus musculus, UniProt Q03137); test: EphA4 ligand-binding antagonists – biochemical, colorimetric, mouse EphA4, primary screen (AID 689); format: functional
Ephrin type-A receptor 4, sequence (Q03137 whole entry): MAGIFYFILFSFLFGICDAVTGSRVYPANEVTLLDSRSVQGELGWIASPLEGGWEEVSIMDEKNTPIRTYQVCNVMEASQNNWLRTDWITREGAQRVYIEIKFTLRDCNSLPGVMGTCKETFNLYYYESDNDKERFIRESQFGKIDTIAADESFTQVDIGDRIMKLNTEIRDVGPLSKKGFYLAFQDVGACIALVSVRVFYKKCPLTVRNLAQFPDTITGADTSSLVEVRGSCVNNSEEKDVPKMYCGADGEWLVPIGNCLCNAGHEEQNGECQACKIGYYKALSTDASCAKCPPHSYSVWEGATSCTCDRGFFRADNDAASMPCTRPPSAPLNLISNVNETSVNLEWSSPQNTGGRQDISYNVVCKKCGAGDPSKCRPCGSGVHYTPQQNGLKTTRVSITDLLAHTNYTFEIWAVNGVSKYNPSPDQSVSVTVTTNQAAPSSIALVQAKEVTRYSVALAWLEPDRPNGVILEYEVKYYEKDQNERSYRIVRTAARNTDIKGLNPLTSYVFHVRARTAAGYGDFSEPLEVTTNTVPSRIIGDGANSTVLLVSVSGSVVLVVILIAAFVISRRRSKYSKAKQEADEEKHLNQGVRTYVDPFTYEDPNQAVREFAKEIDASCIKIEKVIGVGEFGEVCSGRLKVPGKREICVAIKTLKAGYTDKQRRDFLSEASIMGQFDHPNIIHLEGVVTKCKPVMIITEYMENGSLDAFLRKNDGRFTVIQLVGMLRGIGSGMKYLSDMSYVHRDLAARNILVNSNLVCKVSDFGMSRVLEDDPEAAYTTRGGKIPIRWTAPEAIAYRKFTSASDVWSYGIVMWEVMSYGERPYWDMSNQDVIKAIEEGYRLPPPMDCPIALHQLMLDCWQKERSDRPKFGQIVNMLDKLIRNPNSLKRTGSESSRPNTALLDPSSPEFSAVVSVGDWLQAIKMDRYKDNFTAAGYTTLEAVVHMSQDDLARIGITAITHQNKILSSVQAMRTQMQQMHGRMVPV

[6] = target: Ubiquitin carboxyl-terminal hydrolase BAP1 (Homo sapiens, UniProt Q92560); test: inhibition of BAP1 ubiquitin hydrolase activity – biochemical, dose response (AID 714); format: functional
[7] = target: E3 ubiquitin-protein ligase Mdm2 (Homo sapiens, UniProt Q00987); test: MDM2-luc reporter signal enhancers, multi-concentration potency testing, MDM2 ubiquitin-protein ligase inhibitor program, whole-cell format, luminescence detection, 384-well microplate (AID 1394); format: functional;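 further: MDM2 E3 inhibitors raise luminescence so EC50 is for signal enhancement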
E3 ubiquitin-protein ligase Mdm2, sequence (Q00987 whole entry): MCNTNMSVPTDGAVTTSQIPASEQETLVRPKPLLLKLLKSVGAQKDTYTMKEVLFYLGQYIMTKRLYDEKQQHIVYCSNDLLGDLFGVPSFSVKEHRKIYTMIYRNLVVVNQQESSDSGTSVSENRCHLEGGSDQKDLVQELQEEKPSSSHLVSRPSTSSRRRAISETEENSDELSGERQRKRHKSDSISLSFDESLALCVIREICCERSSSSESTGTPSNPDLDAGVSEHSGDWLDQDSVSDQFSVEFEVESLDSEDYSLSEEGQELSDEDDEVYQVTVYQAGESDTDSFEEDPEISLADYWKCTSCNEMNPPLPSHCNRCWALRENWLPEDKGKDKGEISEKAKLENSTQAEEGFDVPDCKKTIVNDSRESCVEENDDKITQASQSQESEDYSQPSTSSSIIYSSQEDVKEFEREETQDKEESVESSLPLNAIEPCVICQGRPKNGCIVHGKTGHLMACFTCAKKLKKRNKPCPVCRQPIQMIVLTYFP

[8] = viability loss in human Jurkat cells – cell-based, luminescence, cytotoxicity control for P. falciparum gametocyte viability project, dose response (AID 1117277); format: functional;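 further: potency reflects loss of cellular ATP meaning fewer viable cells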
[9] = target: T2, Fatty acid synthase (Homo sapiens, UniProt P49327); test: inhibition of human FAS-TE enzyme activity – biochemical, kinetic fluorescence intensity, dose response (AID 624326); format: functional;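 further: rate of fluorescence rise from hydrolysis of a fluorogenic O-methyl fluorescein ester substrate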
T2 sequence (P49327 whole entry): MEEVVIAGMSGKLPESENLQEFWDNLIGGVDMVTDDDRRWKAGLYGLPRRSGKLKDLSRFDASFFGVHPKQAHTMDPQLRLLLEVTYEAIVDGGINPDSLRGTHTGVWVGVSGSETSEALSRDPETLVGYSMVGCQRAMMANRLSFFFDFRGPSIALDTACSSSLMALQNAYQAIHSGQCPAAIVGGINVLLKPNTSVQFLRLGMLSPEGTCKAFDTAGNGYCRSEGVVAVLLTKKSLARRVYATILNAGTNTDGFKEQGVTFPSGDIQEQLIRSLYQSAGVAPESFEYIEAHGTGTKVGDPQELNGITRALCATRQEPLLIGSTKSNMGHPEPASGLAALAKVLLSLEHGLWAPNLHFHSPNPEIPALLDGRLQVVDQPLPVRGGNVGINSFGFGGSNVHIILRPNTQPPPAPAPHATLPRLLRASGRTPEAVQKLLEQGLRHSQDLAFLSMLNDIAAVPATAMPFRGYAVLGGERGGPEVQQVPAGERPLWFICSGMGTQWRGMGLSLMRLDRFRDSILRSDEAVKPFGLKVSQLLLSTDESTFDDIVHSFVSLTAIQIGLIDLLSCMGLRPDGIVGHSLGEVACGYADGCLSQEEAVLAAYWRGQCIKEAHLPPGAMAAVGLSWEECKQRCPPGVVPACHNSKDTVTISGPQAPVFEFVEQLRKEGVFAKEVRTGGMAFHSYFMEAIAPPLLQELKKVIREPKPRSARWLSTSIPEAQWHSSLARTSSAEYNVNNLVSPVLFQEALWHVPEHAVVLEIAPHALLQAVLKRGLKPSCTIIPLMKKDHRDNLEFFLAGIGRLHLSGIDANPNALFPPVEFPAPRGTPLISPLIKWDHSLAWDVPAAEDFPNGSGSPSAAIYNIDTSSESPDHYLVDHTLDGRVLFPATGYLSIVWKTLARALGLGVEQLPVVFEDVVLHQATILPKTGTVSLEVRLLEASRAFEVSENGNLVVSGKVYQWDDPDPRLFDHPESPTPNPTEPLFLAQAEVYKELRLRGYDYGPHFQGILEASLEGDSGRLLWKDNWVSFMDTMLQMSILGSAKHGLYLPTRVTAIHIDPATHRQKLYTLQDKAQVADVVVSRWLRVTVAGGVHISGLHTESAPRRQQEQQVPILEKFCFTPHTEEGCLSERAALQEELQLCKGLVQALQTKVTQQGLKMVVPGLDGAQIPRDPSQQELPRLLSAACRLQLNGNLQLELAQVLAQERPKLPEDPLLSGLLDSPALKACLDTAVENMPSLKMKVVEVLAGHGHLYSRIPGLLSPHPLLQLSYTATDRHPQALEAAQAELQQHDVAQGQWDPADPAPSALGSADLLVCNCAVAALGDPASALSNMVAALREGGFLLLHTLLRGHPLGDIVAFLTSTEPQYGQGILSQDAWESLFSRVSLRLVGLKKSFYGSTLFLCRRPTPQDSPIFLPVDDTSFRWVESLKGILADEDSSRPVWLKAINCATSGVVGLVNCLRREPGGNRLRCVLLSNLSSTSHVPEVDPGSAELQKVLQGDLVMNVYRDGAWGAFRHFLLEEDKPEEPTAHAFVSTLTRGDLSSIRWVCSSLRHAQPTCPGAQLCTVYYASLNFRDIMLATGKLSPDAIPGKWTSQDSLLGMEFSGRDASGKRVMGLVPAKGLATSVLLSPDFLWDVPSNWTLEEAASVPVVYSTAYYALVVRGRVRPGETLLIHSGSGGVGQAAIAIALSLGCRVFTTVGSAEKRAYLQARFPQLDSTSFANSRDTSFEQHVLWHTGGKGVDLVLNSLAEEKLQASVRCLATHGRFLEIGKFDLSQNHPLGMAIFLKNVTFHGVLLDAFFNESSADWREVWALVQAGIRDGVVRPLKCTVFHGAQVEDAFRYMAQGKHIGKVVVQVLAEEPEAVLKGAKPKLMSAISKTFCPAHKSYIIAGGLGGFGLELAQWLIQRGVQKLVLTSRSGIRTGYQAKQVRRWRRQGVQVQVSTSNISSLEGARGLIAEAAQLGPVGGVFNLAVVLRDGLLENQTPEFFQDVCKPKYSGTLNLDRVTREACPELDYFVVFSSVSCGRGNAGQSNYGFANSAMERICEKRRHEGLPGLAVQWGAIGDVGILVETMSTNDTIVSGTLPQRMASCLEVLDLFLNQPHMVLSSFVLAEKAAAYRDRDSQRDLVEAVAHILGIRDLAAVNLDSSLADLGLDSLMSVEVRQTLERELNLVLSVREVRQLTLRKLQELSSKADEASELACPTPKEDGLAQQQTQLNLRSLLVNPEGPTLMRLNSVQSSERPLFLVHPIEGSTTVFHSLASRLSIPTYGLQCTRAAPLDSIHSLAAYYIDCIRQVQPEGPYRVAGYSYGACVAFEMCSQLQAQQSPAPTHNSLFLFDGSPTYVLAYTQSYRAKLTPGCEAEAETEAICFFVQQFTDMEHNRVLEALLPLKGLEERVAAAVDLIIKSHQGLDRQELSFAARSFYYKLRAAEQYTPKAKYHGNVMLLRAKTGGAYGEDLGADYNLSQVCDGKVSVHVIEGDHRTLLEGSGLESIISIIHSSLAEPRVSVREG

[10] = target: T3, Heat shock factor protein 1 (Mus musculus, UniProt P38532); test: enhancement of HSF1-driven luciferase signal – cell-based, NIH3T3, luminescence, dose retest, confirmation (AID 435004); format: functional;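 further: stress induced by proteasome inhibitor MG132 added 30 min after compound; luciferase reporter driven by HSF1 response element in NIH3T3 cells; actives raise luminescence as potentiators of the MG132 stress response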
T3 sequence (P38532 whole entry): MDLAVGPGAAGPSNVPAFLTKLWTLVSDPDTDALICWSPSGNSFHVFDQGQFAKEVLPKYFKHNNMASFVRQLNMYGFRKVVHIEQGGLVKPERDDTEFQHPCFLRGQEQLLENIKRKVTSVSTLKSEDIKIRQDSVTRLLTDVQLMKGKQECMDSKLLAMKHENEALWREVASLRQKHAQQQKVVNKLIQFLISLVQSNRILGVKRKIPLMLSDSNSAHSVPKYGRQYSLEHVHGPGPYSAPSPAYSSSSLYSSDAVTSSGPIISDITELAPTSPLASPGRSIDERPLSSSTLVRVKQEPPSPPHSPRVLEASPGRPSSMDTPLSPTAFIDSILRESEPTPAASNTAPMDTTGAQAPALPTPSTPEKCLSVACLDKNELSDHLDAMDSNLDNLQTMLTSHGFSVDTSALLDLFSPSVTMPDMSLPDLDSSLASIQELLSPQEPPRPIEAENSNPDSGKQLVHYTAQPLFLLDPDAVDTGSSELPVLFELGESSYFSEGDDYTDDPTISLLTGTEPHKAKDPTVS

[11] = viability inhibitors of stage V gametocytes – luminescence, dose response (AID 1117278); format: functional, cell-based;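 further: gametocytes exposed to compound for 24 hours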
[12] = target: T2, Fatty acid synthase; test: inhibition of human FAS-TE enzyme activity – biochemical, endpoint fluorescence intensity, uHTS hits, dose response (AID 624327); format: functional;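 further: fluorescence from hydrolysis of an O-methyl fluorescein acyl ester substrate by the enzyme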
[13] = target: Heat shock protein HSP 90-alpha (Homo sapiens, UniProt P07900); test: Luminescence-based dose response biochemical high throughput screening assay for inhibitors of the Heat Shock Protein 90 (HSP90). [Related pubchem assays: 1831 (Summary AID.), 1846 (Confirmation screen.), 1789 (Primary screen.)]
[14] = HIV-1 Vif–A3G interaction blockers – biochemical, TR-FRET, GST-Vif 1-94, biotin-A3G peptide, dose response retest, primary screen (AID 1117319); format: functional;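 further: TR-FRET signal of purified GST-Vif binding a biotinylated A3G peptide; inhibitors lower the FRET signal by blocking Vif and A3G binding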
[15] = target: T4, Low molecular weight phosphotyrosine protein phosphatase (Homo sapiens, UniProt P24666); test: inhibition of human LMPTP enzyme activity – biochemical, absorbance, pNPP substrate, LMPTP-A isoform, set 2, orthogonal assay, dose response (AID 743308); format: functional
T4 sequence (P24666 whole entry): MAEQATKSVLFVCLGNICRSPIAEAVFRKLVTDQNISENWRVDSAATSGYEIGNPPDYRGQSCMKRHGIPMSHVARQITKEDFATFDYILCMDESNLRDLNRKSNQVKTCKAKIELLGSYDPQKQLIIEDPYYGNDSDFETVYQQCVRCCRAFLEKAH

[16] = target: T4, Low molecular weight phosphotyrosine protein phosphatase; test: inhibition of LMPTP-A enzymatic activity – biochemical, OMFP substrate, fluorescence intensity, set 2, dose response (AID 743307); format: functional
[17] = target: Voltage-gated inwardly rectifying potassium channel KCNH2 (Homo sapiens, UniProt Q12809); test: concentration-dependent hERG rescue from blockers – cell-based, thallium flux, dose response (AID 2121); format: ADME
[18] = viability of uninfected HEp-2 cells – cell-based, HTS, cytotoxicity control for RSV inhibitor project, dose response (AID 2410); format: functional; conditions: human respiratory syncytial virus

Compound: CCOC(=O)N1CCN(C(=O)CSc2nnc(-c3c[nH]c4ccccc34)n2CCOC)CC1
IC50 [5]: > 100 µM (not active)

Compound: Cc1cc2c(cc1C)C(c1cccc([N+](=O)[O-])c1)CC(=O)N2 (stereo not drawn)
IC50 [8]: > 83.2 µM (inactive) | IC50 [9]: 7.33 µM (active) | EC50 [10]: > 260 µM (inactive) | IC50 [11]: > 109 µM (inactive) | IC50 [12]: 5.61 µM (active)

Compound: CCc1ccccc1NC(=O)CC(O)(C(=O)OC)C(F)(F)F (stereo not drawn)
IC50 [14]: > 100 µM (active)

Compound: Sc1ncnc2c1sc1nc(-c3ccccc3)c3c(c12)CCCC3
EC50 [17]: 1.69 µM (active) | CC50 [18]: 16.9 µM (active)

More lines, main results first:

EC50 [1]: > 53 µM (inactive) | IC50 [2]: 19.2 µM (active)
Compound: O=C1CSC(c2nn(-c3ccccc3)cc2-c2cc3ccccc3oc2=O)N1Cc1ccco1 (stereo not drawn)
CC50 [3]: > 40 µM (active)

EC50 [4]: 3.45 µM (active)
Compound: Cc1cc(NC(=O)CS(=O)(=O)c2cn(Cc3cccc(-c4ccn(C)n4)c3)c3ccccc23)no1

IC50 [6]: > 50 µM (not active)
Compound: Cc1sc(NC(=O)CSc2nnc(COc3ccc(Cl)cc3)n2C)c(C#N)c1C

EC50 [7]: 3.98 µM (not active)
Compound: Cn1cc/c(=N\C=C(C#N)C#N)c2ccccc21

IC50 [13]: 6.25 µM (active)
Compound: CN(C)c1ccc(C2Nc3cccc4cccc(c34)N2)cc1

IC50 [15]: > 80 µM (inactive) | IC50 [16]: > 80 µM (inactive)
Compound: Brc1ccc2nc(-c3ccccc3)cc(NCCCN3CCCCC3)c2c1
